The target in the assay is T1, transketolase (TK) (Zea mays, UniProt Q7SIC9).
T1 sequence (Q7SIC9 1-675): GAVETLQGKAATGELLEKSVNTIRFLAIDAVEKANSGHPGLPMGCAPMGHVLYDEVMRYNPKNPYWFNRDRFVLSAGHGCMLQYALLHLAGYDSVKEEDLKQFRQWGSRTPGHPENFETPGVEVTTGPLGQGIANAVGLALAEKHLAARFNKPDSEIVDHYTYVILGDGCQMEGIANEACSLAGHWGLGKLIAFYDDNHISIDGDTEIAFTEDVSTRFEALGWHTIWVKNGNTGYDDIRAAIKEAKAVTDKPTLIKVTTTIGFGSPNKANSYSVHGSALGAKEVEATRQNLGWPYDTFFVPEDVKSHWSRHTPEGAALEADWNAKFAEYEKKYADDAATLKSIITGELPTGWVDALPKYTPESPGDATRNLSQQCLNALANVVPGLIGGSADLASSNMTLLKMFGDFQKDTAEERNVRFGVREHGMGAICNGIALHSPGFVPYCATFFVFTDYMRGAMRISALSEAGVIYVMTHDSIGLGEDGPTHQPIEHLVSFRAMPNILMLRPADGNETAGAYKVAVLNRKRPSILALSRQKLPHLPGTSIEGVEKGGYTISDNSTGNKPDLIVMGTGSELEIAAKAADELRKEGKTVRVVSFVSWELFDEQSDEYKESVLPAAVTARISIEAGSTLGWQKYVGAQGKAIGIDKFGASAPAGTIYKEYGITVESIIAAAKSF
As to the kind of experiment: in vitro dose-response enzymatic activity assay. To be noted: read-out: enzymatic assay / IC50. Type of assay: biochemical.

SMILES strings stand for the structures.

The text below walks through data of publication PMC7614749 (Chemistry (Weinheim an der Bergstrasse, Germany), 2023).

In the case of `C/C=C1/CC2=C(C(=O)OC2=O)[C@H](CCC)[C@H](O)C(=O)C[C@@H]1O` [compound 6, cornexistin], the IC50 was found to be 50 ± 5 µM.
